From patent EP4201923A1, “5-SUBSTITUTED 2,3-DIHYDROPYRIDIN-4-ONES AND PROCESS FOR PREPARING THE SAME” (Karl-Franzens-Universität Graz, priority 2021, dated 2023)

Legend:
MRC-5 cells = experiment: Cytotoxicity assay using MRC-5 cells (XTT colorimetric cell viability); format: cell-based, human; settings: solvent control DMSO 0.1 %
Excerpt: The results are expressed as cell metabolic activity in % of the solvent control.

Escherichia coli = experiment: Antimicrobial activity, drop plate method assay; format: cell-based; design: key: high activity (++); medium activity (+); low activity (±); no activity(-); settings: 10 µl of 1 mg/ml in DMSO dropped on seeded agar plate; read after approximately 10-16 h
Experimental: (§1) A drop plate method assay (Alajlani M et al. Chromatographia 2016, 79, 1527-1532.) with modification was performed to detect the antimicrobial activity against several bacteria strains. Investigated compounds (compounds of examples 1-7, 9) were dissolved in DMSO to a concentration of 1 mg/ml. Using sterile micropipette 10 µl of each compound was directly but gently dropped over seeded agar plate with test organism. The liquid was allowed to diffuse before the plate was inverted and incubated. The growth conditions for every strain were considered. The results were noted when a lawn of the indicator organism appeared on the plate (approximately 10-16 h). The magnitude of activity was noted as high activity (++), medium activity (+), low activity (±) and no activity(-). Not determined data are indicated with n.d. Table 3: Antimicrobial activities of compounds_were detected over the test organisms

Pseudomonas fluorescens = experiment: Antimicrobial activity, drop plate method assay; format: cell-based; design: key: high activity (++); medium activity (+); low activity (±); no activity(-); settings: 10 µl of 1 mg/ml in DMSO dropped on seeded agar plate; read after approximately 10-16 h
Experimental: as §1

Serratia sp = experiment: Antimicrobial activity, drop plate method assay; format: cell-based; design: key: high activity (++); medium activity (+); low activity (±); no activity(-); settings: 10 µl of 1 mg/ml in DMSO dropped on seeded agar plate; read after approximately 10-16 h
Experimental: as §1

[1] = test system: human CCRF-CEM leukemia cells; experiment: Anticancer activity by cytotoxicity to human CCRF-CEM leukemia cells (XTT colorimetric cell viability); format: cell-based; settings: solvent control DMSO 0.1 %
Experimental: Assays were performed using an established cancer cell line, human CCRF-CEM leukemia cells and cell viability determined as described above with a colorimetric assay using the tetrazolium salt XTT as reported (Moshin N et al. Monatshefte für Chemie 2018, 149, 801-812). The anticancer drug vinblastine, the solvent DMSO and the untreated cells are used as control. The compounds of examples 1 to 8 were investigated in concentrations of 5 µM and 50 µM. Table 2: Results for anticancer activity against CCRF-CEM cells expressed as cell metabolic activity in % of the solvent control The results are expressed as cell metabolic activity in % of the solvent control. […] Thus, the compounds of the present invention show a substantial anticancer activity.

Micrococcus luteus = experiment: Antimicrobial activity, drop plate method assay; format: cell-based; design: key: high activity (++); medium activity (+); low activity (±); no activity(-); settings: 10 µl of 1 mg/ml in DMSO dropped on seeded agar plate; read after approximately 10-16 h
Experimental: as §1

SMILES | cell metabolic activity in % of the solvent control, mean (MRC-5 cells; compound 5 µM) [%] | cell metabolic activity in % of the solvent control, mean (MRC-5 cells; compound 50 µM) [%] | Antimicrobial activity, Escherichia coli (Escherichia coli) | Antimicrobial activity, Pseudomonas fluorescens (Pseudomonas fluorescens) | Antimicrobial activity, Serratia sp (Serratia sp) | cell metabolic activity in % of the solvent control, mean ([1]; compound 5 µM) [%] | cell metabolic activity in % of the solvent control, mean ([1]; compound 50 µM) [%] | Antimicrobial activity, Micrococcus luteus (Micrococcus luteus) | cell metabolic activity in % of the solvent control, mean (MRC-5 cells; control substance at 100 nM) [%] | cell metabolic activity in % of the solvent control, mean ([1]; control substance at 100 nM) [%]
Cc1ccc(C(C2=CNC(C)(C)CC2=O)N2CCCC2)cc1 (racemic) [Example 7, (RS)-2,3-Dihydro-2,2-dimethyl-5-((4-methylphenyl)-(pyrrolidin-1-yl)methyl)pyridin-4(1H)-one] | 100.07 | 88.41 | + | ++ | ± | 87.47 | 8.52 | – | – | –
CC1(C)CC(=O)C(C(c2ccccc2C(F)(F)F)N2CCCC2)=CN1 (racemic) [Example 8, (RS)-2,3-Dihydro-2,2-dimethyl-5-((pyrrolidin-1-yl)-(2-trifluormethylphenyl)methyl)pyridin-4(1H)-one] | 103.65 | 67.08 | – | – | – | 52.06 | 8.46 | – | – | –
CC1(C)CC(=O)C(C(c2ccc(F)cc2)N2CCOCC2)=CN1 (racemic) [Example 6, (RS)-2,3-Dihydro-2,2-dimethyl-5-((4-fluorphenyl)(morpholin-1-yl)methyl)pyridin-4 (1H) -one] | 105.36 | 89.35 | + | ++ | ± | 87.71 | 8.78 | – | – | –
CC(C)c1ccc(C(C2=CNC(C)(C)CC2=O)N2CCCC2)cc1 (racemic) [Example 5, (RS)-2,3-Dihydro-2,2-dimethyl-5-((4-isopropylphenyl)-(pyrrolidin-1-yl)methyl)pyridin-4(1H)-one] | 104.11 | 42.19 | + | ++ | ± | 75.36 | 8.72 | – | – | –
CC1(C)CC(=O)C(C(c2ccccc2)N2CCCC2)=CN1 (racemic) [Example 1, (RS)-2,3-Dihydro-2,2-dimethyl-5-(phenyl(pyrrolidin-1-yl)methyl)pyridin-4(1H)-one] | 107.18 | 87.86 | + | + | ± | 88.69 | 9.02 | + | – | –
CC1(C)CC(=O)C(C(c2ccc(F)cc2)N2CCCC2)=CN1 (racemic) [Example 4, (RS)-2,3-Dihydro-2,2-dimethyl-5-((4-fluorphenyl)-(pyrrolidin-1-yl)methyl)pyridin-4(1H)-one] | 105.92 | 90.99 | ++ | + | + | 88.03 | 8.82 | + | – | –
CC1(C)CC(=O)C(C(c2ccccc2)N2CCCCC2)=CN1 (racemic) [Example 2, (RS)-2,3-Dihydro-2,2-dimethyl-5-(phenyl(piperidin-1-yl)methyl)pyridin-4(1H)-one] | 108.05 | 82.27 | + | + | ± | 88.18 | 8.75 | + | – | –
CC1(C)CC(=O)C(C(c2ccccc2)N2CCOCC2)=CN1 (racemic) [Example 3, (RS)-2,3-Dihydro-2,2-dimethyl-5-(phenyl(morpholin-1-yl)methyl)pyridin-4(1H)-one] | 110.88 | 84.05 | + | + | ± | 93.13 | 10.98 | ++ | – | –
CC[C@]1(O)C[C@@H]2CN(CCc3c([nH]c4ccccc34)[C@@](C(=O)OC)(c3cc4c(cc3OC)N(C)[C@H]3[C@@](O)(C(=O)OC)[C@H](OC(C)=O)[C@]5(CC)C=CCN6CC[C@]43[C@@H]65)C2)C1 [Vinblastine, vinblastine, reference compound] | – | – | – | – | – | – | – | – | 51.88 | 9.06
CC1(C)CC(=O)C(C(c2ccncc2)N2CCCC2)=CN1 (racemic) [Example 9, (RS)-2,3-Dihydro-2,2-dimethyl-5-((4-pyridyl)-(pyrrolidin-1-yl)methyl)pyridin-4(1H)-one] | – | – | + | – | ± | – | – | + | – | –
